Biological target: T1, GCN2 (Homo sapiens, UniProt Q9P2K8)
T1 construct: purchased Carma Biosciences (so in the source)
Experiment: TR-FRET biochemical assay for inhibition of GCN2 activity
Details: 2 nM GCN2, 100 nM GFP-eIF2α, 150 μM ATP, 1.5 hours at 25° C.
Protocol: Exemplary compounds from the above Examples were tested for ability to inhibit GCN2 activity using a time resolved fluorescence energy transfer (TR-FRET) assay. Assay procedures and results are described below for Examples 12-105.
GCN2 protein was obtained from Carma Biosciences (cat #05-153). The protein was diluted in assay buffer (ThermoFisher Scientific, #PV6135), 2 mM dithiothreitol (DTT), to obtain a final concentration of 2 nM and 5 μL was plated in a 384-well white assay plate. Test compounds were serially diluted to 11 concentrations by 3-fold dilution in DMS0 and 10 nL of stock was plated into 384 well white assay plate. DMS0 was used as a vehicle control. GFP-eIF2α protein was obtained from ThermoFisher (cat #PV4809). The protein was diluted in assay buffer to a 2× concentration of 200 nM along with 300 μM ATP (final concentration of 100 nM GFP-eIF2α and 150 μM ATP) in the presence of 2 mM DTT and a […] was added to each well containing the GCN2 protein and test compound. The plate was incubated in the dark at 25° C. for 1.5 hours, shaking at 1250 rpm. Tb-anti P-eIF2α (ThermoFisher cat #PV4815) was diluted to a to a concentration of 1 nM in TR-FRET Dilution Buffer (ThermoFisher cat #PV3574). 10 μL of the Tb-anti P-eIF2a solution was added to the TR-FRET reaction. The plate was incubated in the dark for 2 h at 25° C. shaking at 600 rpm. The FRET signal from the plate was read on a Envision (PerkinElmer) plate reader: • Label 1: Excitation: 340 nm, bandwidth 30 nm; Emission: 495 nm, bandwidth 10 nm. Lag time: 100 μsec. Integration time: 400 μsec. Flashes: 30. • Label 2: Excitation: 340 nm, bandwidth 30 nm; Emission: 520 nm, bandwidth 25 nm. Lag time: 100 μsec. Integration time: 400 μsec. Flashes: 30
The data were analyzed using GraphPad Prism employing a 4-parameter sigmoidal curve fit.

T1 sequence (Q9P2K8 whole entry): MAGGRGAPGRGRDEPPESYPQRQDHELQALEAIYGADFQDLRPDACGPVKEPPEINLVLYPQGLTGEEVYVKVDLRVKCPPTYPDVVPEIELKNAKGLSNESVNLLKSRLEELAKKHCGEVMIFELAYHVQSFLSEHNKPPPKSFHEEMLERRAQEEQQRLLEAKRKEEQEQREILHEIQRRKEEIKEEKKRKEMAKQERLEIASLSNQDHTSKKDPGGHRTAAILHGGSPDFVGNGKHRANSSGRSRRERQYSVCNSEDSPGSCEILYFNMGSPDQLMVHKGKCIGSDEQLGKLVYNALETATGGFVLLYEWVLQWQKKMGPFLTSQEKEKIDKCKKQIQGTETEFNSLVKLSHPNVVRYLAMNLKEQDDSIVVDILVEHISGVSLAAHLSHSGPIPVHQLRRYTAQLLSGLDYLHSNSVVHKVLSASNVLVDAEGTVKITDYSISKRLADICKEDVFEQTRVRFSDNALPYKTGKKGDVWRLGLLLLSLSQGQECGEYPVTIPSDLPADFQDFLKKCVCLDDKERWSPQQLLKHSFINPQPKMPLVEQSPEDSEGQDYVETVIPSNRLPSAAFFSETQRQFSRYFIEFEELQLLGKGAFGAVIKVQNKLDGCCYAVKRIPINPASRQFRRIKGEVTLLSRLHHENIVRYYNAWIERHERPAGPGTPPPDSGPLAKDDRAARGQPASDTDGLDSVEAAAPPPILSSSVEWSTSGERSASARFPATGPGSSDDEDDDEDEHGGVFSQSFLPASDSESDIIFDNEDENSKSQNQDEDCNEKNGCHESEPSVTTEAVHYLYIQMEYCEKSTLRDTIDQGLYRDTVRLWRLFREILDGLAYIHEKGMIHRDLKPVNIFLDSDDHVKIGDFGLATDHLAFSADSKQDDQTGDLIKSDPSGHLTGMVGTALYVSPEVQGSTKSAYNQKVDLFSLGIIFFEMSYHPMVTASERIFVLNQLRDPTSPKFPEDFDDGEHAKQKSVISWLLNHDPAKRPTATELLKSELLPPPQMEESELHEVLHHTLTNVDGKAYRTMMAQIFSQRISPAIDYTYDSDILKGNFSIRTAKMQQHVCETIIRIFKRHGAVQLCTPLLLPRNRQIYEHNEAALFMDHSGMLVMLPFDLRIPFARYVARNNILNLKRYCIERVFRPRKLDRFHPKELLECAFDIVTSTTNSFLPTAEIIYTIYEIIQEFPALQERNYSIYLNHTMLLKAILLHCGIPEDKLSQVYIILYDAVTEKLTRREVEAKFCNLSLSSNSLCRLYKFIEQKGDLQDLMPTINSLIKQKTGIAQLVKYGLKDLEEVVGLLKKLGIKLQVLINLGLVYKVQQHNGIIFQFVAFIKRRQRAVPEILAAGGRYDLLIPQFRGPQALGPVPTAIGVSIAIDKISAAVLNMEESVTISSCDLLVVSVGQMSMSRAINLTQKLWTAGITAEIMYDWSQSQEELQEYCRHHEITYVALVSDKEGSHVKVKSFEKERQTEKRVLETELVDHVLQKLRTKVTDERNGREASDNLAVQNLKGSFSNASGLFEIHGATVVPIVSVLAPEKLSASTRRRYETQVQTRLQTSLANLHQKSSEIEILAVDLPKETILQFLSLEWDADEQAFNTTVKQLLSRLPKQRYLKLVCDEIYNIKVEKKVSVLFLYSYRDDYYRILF

Compound | IC50 [nM]
CNC(=O)c1cc(CCc2c(F)ccc(NS(=O)(=O)c3cc(Cl)cnc3OC)c2F)[nH]n1 [Compound 8, 5-[2-[3-(5-chloro-2-methoxypyridine-3-sulfonamido)-2,6-difluorophenyl]ethyl]-N-methyl-1H-pyrazole-3-carboxamide] | < 50
COc1ncc(Cl)cc1S(=O)(=O)Nc1ncc(F)c(COc2cnc3[nH]nc(C)c3c2)c1F [Compound 65, 5-chloro-N-[3,5-difluoro-4-[([3-methyl-1H-pyrazolo[3,4-b]pyridin-5-yl]oxy)methyl]pyridin-2-yl]-2-methoxypyridine-3-sulfonamide] | < 50
CCc1n[nH]c2ncc(OCc3c(F)ccc(NS(=O)(=O)c4cc(C#N)cnc4OC)c3F)cc12 [Compound 41, 5-cyano-N-[3-[([3-ethyl-1H-pyrazolo[3,4-b]pyridin-5-yl]oxy)methyl]-2,4-difluorophenyl]-2-methoxypyridine-3-sulfonamide] | < 50
COc1ncc(Cl)cc1S(=O)(=O)Nc1ccc(F)c(COc2cnc3[nH]nc(C(C)C)c3c2)c1F [Compound 53, 5-chloro-N-[2,4-difluoro-3-[([3-isopropyl-1H-pyrazolo[3,4-b]pyridin-5-yl]oxy)methyl]phenyl]-2-methoxypyridine-3-sulfonamide] | < 50
Cc1ncc(F)cc1S(=O)(=O)Nc1ccc(F)c(COc2cnc3[nH]nc(C)c3c2)c1F [Compound 38, N-[2,4-difluoro-3-[([3-methyl-1H-pyrazolo[3,4-b]pyridin-5-yl]oxy)methyl]phenyl]-5-fluoro-2-methylpyridine-3-sulfonamide] | < 50
COc1ncc(Cl)cc1S(=O)(=O)Nc1ccc(F)c(CCc2ccc3[nH]ncc3n2)c1F [Compound 11, 5-chloro-N-[2,4-difluoro-3-(2-[1H-pyrazolo[4,3-b]pyridin-5-yl]ethyl)phenyl]-2-methoxypyridine-3-sulfonamide] | > 1000
COc1ncc(F)cc1S(=O)(=O)Nc1ccc(F)c(COc2cnc3[nH]nc(C)c3c2C2CC2)c1F [Compound 86, N-[3-[([4-cyclopropyl-3-methyl-1H-Pyrazolo[3,4-b]pyridin-5-yl]oxy)methyl]-2,4-difluorophenyl]-5-fluoro-2-methoxypyridine-3-sulfonamide] | 50 to 500
N#Cc1cc(C(F)(F)F)cc(S(=O)(=O)Nc2ccc(F)c(CCc3cnc4[nH]ncc4c3)c2F)c1 [Compound 16, 3-cyano-N-[2,4-difluoro-3-(2-[1H-pyrazolo[3,4-b]pyridin-5-yl]ethyl)phenyl]-5-(trifluoromethyl)benzenesulfonamide] | 50 to 500
COc1ncc(F)cc1S(=O)(=O)Nc1ccc(F)c(OCc2cnc3[nH]nc(C)c3c2)c1F [Compound 45, N-[2,4-difluoro-3-([3-methyl-1H-pyrazolo[3,4-b]pyridin-5-yl]methoxy)phenyl]-5-fluoro-2-methoxypyridine-3-sulfonamide] | < 50
COc1ncc(F)cc1S(=O)(=O)Nc1ccc(F)c(COc2cnc3[nH]nc(C(C)C)c3c2)c1F [Compound 52, N-[2,4-difluoro-3-[([3-isopropyl-1H-pyrazolo[3,4-b]pyridin-5-yl]oxy)methyl]phenyl]-5-fluoro-2-methoxypyridine-3-sulfonamide] | < 50
COc1ncc(F)cc1S(=O)(=O)Nc1ccc(F)c(COc2cnc3[nH]nc(C)c3c2-c2ccccc2)c1F [Compound 85, N-[2,4-difluoro-3-[([3-methyl-4-phenyl-1H-pyrazolo[3,4-b]pyridin-5-yl]oxy)methyl]phenyl]-5-fluoro-2-methoxypyridine-3-sulfonamide] | 50 to 500
COc1ncc(F)cc1S(=O)(=O)Nc1ccc(F)c(COc2cnc3[nH]nc(C)c3c2C(C)C)c1F [Compound 88, N-[2,4-difluoro-3-[([4-isopropyl-3-methyl-1H-pyrazolo[3,4-b]pyridin-5-yl]oxy)methyl]phenyl]-5-fluoro-2-methoxypyridine-3-sulfonamide] | > 1000
COc1ncc(C#N)cc1S(=O)(=O)Nc1ccc(F)c(NCc2cnc3[nH]nc(C)c3c2)c1F [Compound 49, 5-cyano-N-[2,4-difluoro-3-[([3-methyl-1H-pyrazolo[3,4-b]pyridin-5-yl]methyl)amino]phenyl]-2-methoxypyridine-3-sulfonamide] | 50 to 500
COc1ncc(Cl)cc1S(=O)(=O)Nc1ccc(F)c(COc2cnc3cnn(C)c3c2)c1F [Compound 42, 5-chloro-N-[2,4-difluoro-3-[([1-methylpyrazolo[4,3-b]pyridin-6-yl]oxy)methyl]phenyl]-2-methoxypyridine-3-sulfonamide] | < 50
COc1ncc(F)cc1S(=O)(=O)Nc1ccc(F)c(COc2cnc3[nH]ncc3c2)c1F [Compound 21, N-[2,4-difluoro-3-([1H-pyrazolo[3,4-b]pyridin-5-yloxy]methyl)phenyl]-5-fluoro-2-methoxypyridine-3-sulfonamide] | < 50
COc1ncc(Cl)cc1S(=O)(=O)Nc1ccc(F)c(CCc2ccn3cncc3c2)c1F [Compound 19, 5-chloro-N-[2,4-difluoro-3-(2-[imidazo[1,5-a]pyridin-7-yl]ethyl)phenyl]-2-methoxypyridine-3-sulfonamide] | > 1000
Cc1ncc(F)cc1S(=O)(=O)Nc1ccc(F)c(NCc2cnc3[nH]nc(C)c3c2)c1F [Compound 59, N-[2,4-difluoro-3-[([3-methyl-1H-pyrazolo[3,4-b]pyridin-5-yl]methyl)amino]phenyl]-5-fluoro-2-methylpyridine-3-sulfonamide] | 50 to 500
COc1ncc(Cl)cc1S(=O)(=O)Nc1ncc(F)c(COc2cnc3[nH]nc(C)c3c2)c1Cl [Compound 79, 5-chloro-N-[3-chloro-5-fluoro-4-[([3-methyl-1H-pyrazolo[3,4-b]pyridin-5-yl]oxy)methyl]pyridin-2-yl]-2-methoxypyridine-3-sulfonamide] | < 50
COc1ncc(C#N)cc1S(=O)(=O)Nc1ccc(F)c(CCc2cnc3[nH]ncc3c2)c1F [Compound 10, 5-cyano-N-[2,4-difluoro-3-(2-[1H-pyrazolo[3,4-b]pyridin-5-yl]ethyl)phenyl]-2-methoxypyridine-3-sulfonamide] | < 50
COc1ncc(F)cc1S(=O)(=O)Nc1ccc(F)c(CCc2cnc3cnn(C(C)C)c3c2)c1F [Compound 36, N-[2,4-difluoro-3-(2-[1-isopropylpyrazolo[4,3-b]pyridin-6-yl]ethyl)phenyl]-5-fluoro-2-methoxypyridine-3-sulfonamide] | 50 to 500
COc1ncc(F)cc1S(=O)(=O)Nc1ccc(F)c(COc2cnc3[nH]ncc3c2OC)c1F [Compound 23, N-[2,4-difluoro-3-[([4-methoxy-1H-pyrazolo[3,4-b]pyridin-5-yl]oxy)methyl]phenyl]-5-fluoro-2-methoxypyridine-3-sulfonamide] | 50 to 500
COc1ncc(F)cc1S(=O)(=O)Nc1ccc(F)c(NCc2cnc3[nH]nc(C)c3c2)c1F [Compound 57, N-[2,4-difluoro-3-[([3-methyl-1H-pyrazolo[3,4-b]pyridin-5-yl]methyl)amino]phenyl]-5-fluoro-2-methoxypyridine-3-sulfonamide] | 50 to 500
COc1ncc(F)cc1S(=O)(=O)Nc1ccc(F)c(COc2cnc3[nH]nc(CC(F)F)c3c2)c1F [Compound 75, N-[3-([[3-(2,2-difluoroethyl)-1H-pyrazolo[3,4-b]pyridin-5-yl]oxy]methyl)-2,4-difluorophenyl]-5-fluoro-2-methoxypyridine-3-sulfonamide] | < 50
COc1ncc(F)cc1S(=O)(=O)Nc1ccc(F)c(COc2cnc3[nH]nc(C)c3c2-c2ccncc2)c1F [Compound 87, N-[2,4-difluoro-3-([[3-methyl-4-(pyridin-4-yl)-1H-pyrazolo[3,4-b]pyridin-5-yl]oxy]methyl)phenyl]-5-fluoro-2-methoxypyridine-3-sulfonamide] | 50 to 500
COc1ncc(F)cc1S(=O)(=O)Nc1ncc(F)c(COc2cnc3[nH]nc(C)c3c2)c1F [Compound 56, N-[3,5-difluoro-4-[([3-methyl-1H-pyrazolo[3,4-b]pyridin-5-yl]oxy)methyl]pyridin-2-yl]-5-fluoro-2-methoxypyridine-3-sulfonamide] | < 50
COc1ncc(C#N)cc1S(=O)(=O)Nc1ccc(F)c(OCc2cnc3[nH]nc(C)c3c2)c1F [Compound 48, 5-cyano-N-(2,4-difluoro-3-((3-methyl-1H-pyrazolo[3,4-b]pyridin-5-yl)methoxy)phenyl)-2-methoxypyridine-3-sulfonamide] | 50 to 500
COc1ncc(Cl)cc1S(=O)(=O)Nc1ccc(F)c(C(C)Nc2cnc3[nH]ncc3c2)c1F (stereo not drawn) [Compound 29, 5-chloro-N-[2,4-difluoro-3-(1-[1H-pyrazolo[3,4-b]pyridin-5-ylamino]ethyl)phenyl]-2-methoxypyridine-3-sulfonamide] | > 1000
